Laboratory results as given in patent publication US10172846.
Read-outs that look alike come from different tables or passages of the source.

Columns and labels:
[1] = rcm bond, 14-membered ring
[2] = rcm bond, Hoveyda-Grubbs 2nd generation
[3] = from (1R,2)-1-{[(1R,2R,4R)-2-(N′-tert-Butoxycarbonyl-N-hept-6-enyl-hydrazinocarbonyl)-4-(7-methoxy-2-phenyl-quinolin-4-yloxy)-cyclopentanecarbonyl]-amino}-2-vinyl-cyclopropanecarboxylic acid ethyl ester; rcm bond; 15-membered ring; Hoveyda-Grubbs II; DCM; 7.0 mM

## CN1CCCCC=CC2CC2(C(=O)NS(=O)(=O)C2CC2)NC(=O)C2CC(O)CC2C1=O (centres unmarked)
[1]; from 4-Hydroxycyclopentane-1,2-dicarboxylic acid 1-[(1-cyclopropanesulphonylaminocarbonyl-2-vinylcyclopropyl)-amide] 2-(hex-5-enyl-methylamide), Hoveyda-Grubbs II, 1,2-dichloroethane, 5.4 mM, 160.0 °C
  ring closure, isolated yield: 26%

## CCOC(=O)C12CC1C=CCCCCNC(=O)C1CC(Oc3cc(-c4ccccc4)nc4cc(OC)ccc34)CC1C(=O)N2C (centres unmarked)
[1]; from 1-{[2-Hex-5-enyl-methyl-carbamoyl)-4-(7-methoxy-2-phenyl-quinolin-4-yloxy)-cyclopentanecarbonyl]-amino-2-vinyl-cyclopropanecarboxylic add ethyl ester, Hoveyda-Grubbs II, dichloroethane, 2.02 mM
  ring closure, isolated yield: 37%

## CCOC(=O)C12CC1C=CCCCCN(C)C(=O)C1CC(OS(=O)(=O)c3ccc(Br)cc3)CC1C(=O)N2 (centres unmarked)
[1]; from 1-{(4-(4-Bromo-benzensulphonyloxy-2-(hex-5-enyl-methyl-carbamoyl)-cyclopentanecarbonyl-amino}2-vinyl-cyclopropanecarboxylic add ethyl ester)), Hoveyda-Grubbs I, DCM, 4.2 mM
  ring closure, isolated yield: 60%

## CCOC(=O)C12CC1C=CCCCCNC(=O)C1CC(Oc3cc(-c4ccccc4)nc4cc(OC)ccc34)CC1C(=O)N2 (centres unmarked)
[1]; from 1-{[2-Hex-5-enylcarbamoyl-4-(7-methoxy-2-phenyl-quinolin-4-yloxy)-cyclopentanecarbonyl]-amino}-2-vinyl-cycloprpanecarboxylic acid ethyl ester, Hoveyda-Grubbs II, DCM, 5.8 mM
  ring closure, isolated yield: 32%

## CCOC(=O)[C@@]12C[C@H]1C=CCCCCNC(=O)[C@@H]1C[C@H](Oc3cc(-c4ccccc4)nc4cc(OC)ccc34)C[C@H]1C(=O)N2
[2]; from C=CCCCCNC(=O)[C@@H]1C[C@H](Oc2cc(-c3ccccc3)nc3cc(OC)ccc23)C[C@H]1C(=O)N[C@]1(C(=O)OCC)C[C@H]1C=C, DCM, 5.8 mM, 40.0 °C
  ring closure, yield of all isomers: 32%

## CCOC(=O)[C@@]12C[C@H]1C=CCCCCN(C)C(=O)[C@@H]1C[C@H](Oc3cc(-c4ccccc4)nc4cc(OC)ccc34)C[C@H]1C(=O)N2
[2]; from C=CCCCCN(C)C(=O)[C@@H]1C[C@H](Oc2cc(-c3ccccc3)nc3cc(OC)ccc23)C[C@H]1C(=O)N[C@]1(C(=O)OCC)C[C@H]1C=C, DCE, 2.02 mM, 83.0 °C
  ring closure, yield of all isomers: 37%

## CCOC(=O)[C@@]12C[C@H]1/C=C\CCCCCN(NC(=O)OC(C)(C)C)C(=O)[C@@H]1C[C@H](Oc3cc(-c4ccccc4)nc4cc(OC)ccc34)C[C@H]1C(=O)N2
[2]; from C=CCCCCCN(NC(=O)OC(C)(C)C)C(=O)[C@@H]1C[C@H](Oc2cc(-c3ccccc3)nc3cc(OC)ccc23)C[C@H]1C(=O)N[C@]1(C(=O)OCC)C[C@H]1C=C, DCM, 6.97 mM, 40.0 °C, 16.0 h
  ring closure, yield of all isomers: 70%
[3]
  ring closure, yield after HPLC: 70%
